| SMILES | melting point |
| --- | --- |
| Cc1nc(N(C)C)nc(N)c1-c1cc(Cl)cc(Cl)c1Cl | 151 to 153 °C |
| CC(C)Oc1c(C(N)=O)oc2ccc(OCc3ccccc3)cc12 | 158 to 160 °C |
| CCS(=O)c1nn(-c2ccccc2)c(=O)c2c(N)scc12 (stereo not drawn) | 204 to 205 °C |
| COC(=O)c1nc(-c2ccc(Cl)cc2F)cc(NC(C)=O)c1O | 201 to 206 °C |
| CCN(CC)CC(=O)Nc1ccc(NC(=O)CN(CC)CC)c2c1C(=O)c1ccccc1C2=O | 85 to 86 °C |
| CN1CC[C@@H](c2c(O)cc(O)c3c(=O)cc(-c4c(F)cccc4F)oc23)[C@@H]1CO | 242 to 244 °C |
| O=c1c(-c2ccccc2F)c(CNc2ncnc3[nH]cnc23)oc2ccccc12 | 143 to 147 °C |
| C[C@H]1CC[C@H]2C(C)(C)[C@@H](O)[C@@H](OS(=O)(=O)c3ccccc3)C[C@]23Oc2c(c(O)cc4c2CNC4=O)C[C@]13C | 142 to 144 °C |
| CCOC(=O)C1C(=O)CC(C)(O)C(C(=O)OCC)C1c1cc(Br)c2oc(C)c(C)c2c1 (stereo not drawn) | 194 to 195 °C |
| Cc1cc(C)nc(Nc2ccc(OC(F)F)cc2)n1 | 81 to 82 °C |
| Cc1cccc(C(=O)NN(C(=O)c2ccccc2)C(C)(C)C)c1 | 111 to 114 °C |
| CCOC(=O)c1ccc(NCCCCCCOc2ccc3ccccc3c2)cc1 | 109 to 110 °C |
| CCCCc1ncc(CC(NC(=O)CCc2ccccc2)C(=O)O)n1Cc1ccccc1Cl (stereo not drawn) | 194 to 196 °C |
| CCCCCCCCCCCCCCCCNc1ccc(C(=O)NS(C)(=O)=O)cc1 | 173 to 175 °C |
| COc1cccc2c1SCC(C(=O)O)C2 (stereo not drawn) | 138 to 144 °C |
| C=C(c1ccc(OC)cc1)c1ccc(N(C)C)cc1 | 124 to 126 °C |
| Cc1nn(C)c(O)c1C(=O)c1c(Cl)cccc1Cl | 250 °C |
| COC(=O)[C@H](CO)NC(=O)[C@H](CS)NC(C)=O | 127 to 128 °C |
| C=C1CC(C)(COc2ccc3ccc(=O)oc3c2)OC1=O (stereo not drawn) | 123 to 124 °C |
| COC(=O)c1ccc(Cc2cn(C)c3ccc(C(=O)NCC(C)CC(F)(F)F)cc23)c(OC)c1 (stereo not drawn) | 150 to 151 °C |
| COc1ccc(-n2nc(Sc3ccc4ccccc4c3)c(C)c(C#N)c2=O)cc1 | 169 to 170 °C |
| CCCc1nc(C)c(C=O)n1Cc1ccc(-c2ccccc2C(=O)O)cc1 | 243 to 245 °C |
| Cc1nc2ccccn2c1CN1CCC(Nc2nc3ccccc3n2Cc2ccc(F)cc2)CC1 | 198 °C |
| CC(CN1CCN(c2ccc(F)cc2)CC1)CN1c2cccc3cccc(c23)S1(=O)=O (stereo not drawn) | 133 °C |
| Nc1cc2c(cc1Cl)N1CCCN=C1C2=O | > 270 °C |

| SMILES | melting point |
| --- | --- |
| Cc1ccc(Sc2c(Sc3ccc(C)cc3)c(Sc3ccc(C)cc3)c(C(O)=NCCO)c(C(=O)O)c2Sc2ccc(C)cc2)cc1 | 161 to 162 °C |
| N#Cc1c(N2CCN(C(=O)c3cccs3)CC2)c2cccnc2n(Cc2cccc(F)c2)c1=O | 231 °C |
| Nc1c(C(F)(F)F)cnn1-c1c(Cl)cc(C(F)(F)F)cc1Cl | 106 °C |
| COc1cc(OC)nc(NC(=O)NS(=O)(=O)c2ccccc2C2CCOC2=O)n1 (stereo not drawn) | 164 to 166 °C |
| c1ccc(C2CN(CCCc3cccnc3)Cc3c2[nH]c2ccccc32)cc1 (stereo not drawn) | 204 to 206 °C |
| Cc1cccc(C)c1N1CCN(CCC2CN(C)C(=O)O2)CC1 (stereo not drawn) | 107 to 108 °C |
| COc1c(C)cc(-c2cncc(OC3SCC(OC(C)=O)C(OC(C)=O)C3OC(C)=O)c2)cc1C (stereo not drawn) | 146 °C |
| COC(=O)c1ccc2c(c1)CN(c1cc3c(cc1F)c(=O)c(C(=O)O)cn3C1CC1)C2 | 279 to 285 °C |
| O=C(NC1CCN(Cc2ccccc2)CC1)c1ccccc1OCc1ccnc2ccccc12 | 144 to 146 °C |
| OCc1cccc2c1CCCN2 | 120 to 122 °C |
| N=C(N)c1ccc2cc(OC(=O)C3CCC(CNC(=O)OCc4ccccc4)CC3)ccc2c1 (stereo not drawn) | 167 to 170 °C |
| Cc1c(C#N)sc2nc(Cc3ccccc3)nc(N3CCOCC3)c12 | 88 to 90 °C |
| ON=Cc1ccc(-c2ccc(O)c(F)c2)c2ccccc12 | 187 to 188 °C |
| CC(=O)c1cc(O)c(-c2ccccc2)cc1O | 169 °C |
| CCOC(=O)N=C(OCC)c1ccccc1Cl | 65 to 66 °C |
| N#Cc1ccc(Oc2cccc(Oc3ccc(C#N)c(C#N)c3)c2)cc1C#N | 183 to 186 °C |
| Cc1cccc(C)c1CNc1cc(C(=O)N(C)C)cc2c1nc(CO)n2C | 171 to 172 °C |
| O=C(Nc1ccc2ccc(Oc3ccccc3)nc2n1)c1ccco1 | 167 °C |
| CCN(CC)c1ccc(N=Nc2ccc(C#N)c(C#N)c2)c(NC(C)=O)c1 | 181 to 182 °C |
| COC(=O)N=C(N)SC | 72 to 77 °C |
| CC1(C)CC(=O)c2c(SCCO)sc(-c3cc[nH]n3)c2C1 | 182 to 185 °C |
| COC(=O)CCc1sc(N)nc1-c1ccccc1 | 130 to 131 °C |
| CCCCCCCCCCCCCCCCCC(=O)OCCCCCCCCCCCCCC | 40 °C |
| O=C(O)CNC(=O)c1nc(Cl)c2ccc(OCc3ccccc3)cc2c1O | 210 to 211 °C |
| O=c1[nH]nc(-c2nc3ccccc3o2)[nH]1 | > 300 °C |

| SMILES | melting point |
| --- | --- |
| COc1cc(Br)cc2c(Cl)cc(C)nc12 | 140 to 142 °C |
| O=C(C=C1CCCCN1)c1ccccc1 | 59 to 60 °C |
| CC(OC(C)c1ncn2c1CN(C)C(=O)c1cc(Cl)ccc1-2)c1ncn2c1CN(C)C(=O)c1cc(Cl)ccc1-2 (stereo not drawn) | 193 to 194 °C |
| COc1ccccc1NS(=O)(=O)c1ccc(NC2=C(Cl)C(=O)c3ccccc3C2=O)cc1 | 198 to 201 °C |
| N=C(N)NCCc1ccc(OCCC2Oc3ccccc3N(Cc3cccc(OCc4ccccc4)c3)C2=O)cc1 (stereo not drawn) | 100 to 105 °C |
| CC(C)N1CCC(C(C#N)(c2ccccc2)c2ccccc2)C1 (stereo not drawn) | 73 to 74 °C |
| CCn1c(C)nc2cc(S(C)(=O)=O)c(Cl)c([N+](=O)[O-])c21 | 75 to 79 °C |
| CCNC(=O)Cn1cccc(O)c1=O | 214 to 215 °C |
| Nc1ccc(CCNC(=O)c2cc(O)c(O)c(O)c2)cc1 | 167 to 169 °C |
| C=C(C)Cn1c(=O)n(C)c(=O)c2c(Sc3ccccn3)n(Cc3cccc4ccccc34)nc21 | 118 to 120 °C |
| Cc1cc(CCCCCCCOc2ccc(C(=O)N(C)C)cc2)on1 | 58 to 59 °C |
| CCC(=O)C(CCCCCCCCc1ccc(O)cc1)C(=O)CC | 164 to 165 °C |
| CCOC(=O)C#CC(C)(C)OC(=O)Nc1ccc(-c2ncn(-c3ccc(OC(F)(F)F)cc3)n2)cc1 | 183 to 188 °C |
| C[C@@H](N1CCN(S(C)(=O)=O)CC1)[C@](O)(Cn1cncn1)c1ccc(F)cc1F | 83 to 85 °C |
| CCN(CC)C(=O)Oc1cc(-c2ccccc2)c2ccccc2n1 | 64 °C |
| COc1cc(OC)cc(C2(Cl)C(=O)Nc3ccc(Cl)cc32)c1 (stereo not drawn) | 157 °C |
| NOCc1ccn(C(c2ccccc2)(c2ccccc2)c2ccccc2)n1 | 105 to 110 °C |
| CCCCCCCCCCCCNC(=O)COc1ccc(OC(=O)c2ccccc2)cc1[N+](=O)[O-] | 110 to 111 °C |
| CCOC(=O)C(=O)Oc1cccc(-c2cn3c(n2)sc2ccccc23)c1 | 120 to 121 °C |
| CC(=O)C(C)(C)C(Cl)C=Cc1ccccc1 (stereo not drawn) | 71 °C |
| CCn1c(=O)c2[nH]c(/C=C/c3ccc4c(c3)OCO4)nc2n(CC)c1=O | > 275 °C |
| COC(=O)COc1ccc(CCCO)cc1 | 47 to 48 °C |
| CC(Sc1nc2ccc(N)cc2s1)C(=O)NCCN(C)Cc1ccc(Cl)c(Cl)c1 (stereo not drawn) | 97 to 100 °C |
| O=C1NC(=O)C(Cc2ccc(OCCc3c[nH]c4ccccc34)cc2)S1 (stereo not drawn) | 42.6 to 44.5 °C |
| Cc1cc2c(cc1Cl)N(C)C(=O)C2(NC(=O)CN1CCN(C)CC1)c1ccc(Cl)cc1 (stereo not drawn) | 217 to 219 °C |

| SMILES | melting point |
| --- | --- |
| O=C1N(C(c2ccccc2)c2ccccc2)c2ccccc2C12COc1ccc(-c3cccnc3)cc12 (stereo not drawn) | 204 to 207 °C |
| CCOc1cccc2cc(S(=O)(=O)Nc3ccc(OC)cc3)c(=O)oc12 | 196 to 198 °C |
| OC(c1ccc(Cl)cc1)(c1ccc(Cl)cc1)c1ccns1 | 118 to 120 °C |
| CC(C)(CC1CCCC1)NC(=O)CN1C(=O)c2ccccc2C1=O | 159 to 160 °C |
| Cn1cc(-c2ccccc2)c(=O)c(-c2c(Cl)cccc2Cl)c1 | 223 to 226 °C |
| COc1ccc(-c2c(Cl)c(CN3CCCC3)nc3sc4c(c23)CCN(Cc2ccccc2)C4)cc1OC | 157 to 158 °C |
| Fc1cccc(Nc2nc(Cl)nc(Cl)n2)c1 | 143 °C |
| CN(CCc1c[nH]c2ccc(CN)cc12)Cc1ccccc1 | 84 to 85 °C |
| CCc1nc2c(cnn2CC)c(NC2CCOCC2)c1CNC(=O)c1cccc(C(=O)NCc2ccc(Cl)c(-c3cccc(CN4CCNCC4)c3)c2)c1 | 127 to 130 °C |
| CC(=O)NC[C@H]1CN(c2ccc(C3=CN(C(=O)COC(C)=O)CCC3)c(F)c2)C(=O)O1 | 146 to 148 °C |
| CN1Cc2c(-c3cccs3)ncn2-c2cccc(Cl)c2C1=O | 222 to 223 °C |
| O=C1Nc2ccccc2C(=O)C1=O | > 250 °C |
| CN(C)C(=O)[C@@H]1CS[C@@H](CS)C1 | 41.8 to 44.4 °C |
| O=C(N[C@H]1CC[C@H](CCN2CCC(c3cccc4c3CCO4)CC2)CC1)c1ccc(N2CCCCC2)cc1 | 248 °C |
| O=C(c1ccccc1)c1ccc(NC(=O)c2cc(Cl)ccc2Cl)cc1 | 150 to 153 °C |
| COc1cc(C(=O)N2CCc3nnc(NN)cc3C2)cc(OC)c1OC | 194 to 197 °C |
| O=C(C[C@@H]1COCCO1)N[C@H]1CC[C@H](CCN2CCC(c3cccc4c3CCO4)CC2)CC1 | 190 °C |
| CCCOCc1cc2cc(-c3ccc4c(c3)C=C(C(=O)Nc3ccc(CN(C)C5CCOCC5)cc3)CCS4(=O)=O)ccc2o1 | 204 to 206 °C |
| CC(=O)Oc1ccc(-c2ccc3cc(OC(C)=O)ccc3c2)cc1 | 178 to 180 °C |
| N#Cc1ccc(N2CCc3ccccc32)cc1 | 88.5 to 89.5 °C |
| CC(C)CCSc1cccc(-c2nc(=O)c3ccccc3s2)n1 | 103 to 105 °C |
| O=C(O)CON=C(c1ccccc1)c1cc2ccncc2[nH]1 | 68 to 73 °C |
| COC(CN1CCN(c2ccc(F)cc2)CC1)CN1c2cccc3cccc(c23)S1(=O)=O (stereo not drawn) | 128 °C |

From a melting point compilation (Tetko et al.; mined from patent text by program, amines drawn as free bases though some values may be those of a salt)
